Test results: patent publication US20240408093A1, “HETEROBIFUNCTIONAL COMPOUNDS AND THEIR USE IN TREATING DISEASE” (HALDA THERAPEUTICS OPCO, INC., priority 2022, published 2024)
Like-named read-outs stand apart in the source and are kept apart here.

Assays:
GSPT1 = assay: Payload release assay (DC50 readout), GSPT1 degradation in the presence of recombinant target protein; type: cell-based; settings: I-series compounds (GSPT1 readout inferred)
HeLa cells (ATCC CCL-2) = assay: Cellular growth inhibition assay, HeLa cells (Example 16); type: cell-based; settings: Homo sapiens, 72 hours, CellTiter-Glo 2.0
KRAS G12C = KRAS G12C (Homo sapiens, UniProt P01116, G12C); assay: KRAS G12C nucleotide exchange assay (SOS1-mediated, HTRF); type: biochemical; set-up: GST-tagged KRAS G12C (amino acids 2-169); settings: 1 hr pre-incubation
Outline: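 GST-tagged KRAS G12C (aa 2-169, 30 nM) pre-incubated 1 h at RT with compound (10-point, 3-fold dilution from 10 μM), then SOS1 (aa 564-1049, 20 nM) and GTP-DY-647P1 (0.15 μM) added. Exchange read by HTRF with anti-GST Tb antibody. IC50 from sigmoidal variable-slope fit.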

[1] = test system: HEK293 cells (ATCC CRL-1573); assay: Cellular growth inhibition assay, HEK293 cells (Example 16); type: cell-based; settings: Homo sapiens, 72 hours, CellTiter-Glo 2.0
[2] = 0 μM recombinant KRAS G12C, read-out: DC50 at 0 μM KRAS G12C
[3] = 5 μM recombinant KRAS G12C, read-out: DC50 at 5 μM KRAS G12C

Chain of KRAS G12C (P01116 2-169 isoform P01116-2 G12C): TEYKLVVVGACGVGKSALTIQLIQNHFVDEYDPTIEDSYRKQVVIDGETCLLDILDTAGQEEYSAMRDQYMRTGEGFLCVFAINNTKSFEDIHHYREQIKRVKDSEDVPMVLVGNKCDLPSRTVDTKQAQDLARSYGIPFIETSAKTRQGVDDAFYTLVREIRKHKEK

Row | SMILES | DC50 (GSPT1; [2]) [nM] | DC50 (GSPT1; [3]) [nM] | GI50 (HeLa cells (ATCC CCL-2)) [nM] | IC50 (KRAS G12C) [nM] | GI50 [1] [nM]
1 | C=C(COc1cc(NC(=O)NCc2ccc3c(c2)CN(C2CCC(=O)NC2=O)C3=O)cc(C(F)(F)F)c1)C(=O)N1CC2(CC(n3nc(-c4ccc5c(cnn5C)c4)c(-c4c(Cl)c(C)cc5[nH]ncc45)c3C)C2)C1 (centres unmarked) [Compound I-77] | < 250 | < 250 | > 10000 | 100 to 5000 | 500 to 1500
2 | C=C(COc1cc(Cl)cc(NC(=O)NCc2cc3c(cc2F)C(=O)N(C2CCC(=O)NC2=O)C3)c1)C(=O)N1CCN(c2nc(OC[C@@H]3CCCN3C)nc3c2CCN(c2cccc4cccc(Cl)c24)C3)C[C@@H]1CC#N (some centres unmarked) [Compound I-64] | 250 to 5000 | < 250 | > 10000 | < 100 | 500 to 1500
3 | C=C(COc1cc(C(F)(F)F)c(Cl)cc1NC(=O)NCc1ccc2c(c1)CN(C1CCC(=O)NC1=O)C2=O)C(=O)N1CCN(c2nc(OC[C@@H]3CCCN3C)nc3c2CCN(c2cccc4cccc(Cl)c24)C3)C[C@@H]1CC#N (some centres unmarked) [Compound I-88] | < 250 | < 250 | 500 to 1500 | < 100 | < 500
4 | C=C(COc1cc(NC(=O)NCc2ccc3c(c2)CN(C2CCC(=O)NC2=O)C3=O)cc(F)c1F)C(=O)N1CCN(c2nc(OC[C@@H]3CCCN3C)nc3c2CCN(c2cccc4cccc(Cl)c24)C3)C[C@@H]1CC#N (some centres unmarked) [Compound I-75] | > 10000 | > 10000 | > 10000 | < 100 | > 10000
5 | C=C(CN(C)c1cccc(NC(=O)NCc2ccc3c(c2)CN(C2CCC(=O)NC2=O)C3=O)c1)C(=O)N1CCN(c2nc(OC[C@@H]3CCCN3C)nc3c2CCN(c2cccc4cccc(Cl)c24)C3)C[C@@H]1CC#N (some centres unmarked) [Compound I-58] | > 10000 | 5000 to 10000 | 1500 to 10000 | 5000 to 10000 | 1500 to 10000
6 | C=C(COC(=O)NCCCc1cc(Cl)cc(NC(=O)NCc2ccc3c(c2)CN(C2CCC(=O)NC2=O)C3=O)c1)C(=O)N1CCN(c2nc(OC[C@@H]3CCCN3C)nc3c2CCN(c2cccc4cccc(Cl)c24)C3)C[C@@H]1CC#N (some centres unmarked) [Compound I-74] | 250 to 5000 | < 250 | 1500 to 10000 | < 100 | 500 to 1500
7 | C=C(COc1ccc(CN2C(=O)CCC(N3Cc4cc(CNC(=O)Nc5ccc(C)c(Cl)c5)ccc4C3=O)C2=O)cc1)C(=O)N1CCN(c2nc(OC[C@H]3CCCN3C)nc3c2CCN(c2cccc4cccc(Cl)c24)C3)C[C@@H]1CC#N (stereo in doubt) [Compound I-44] | > 10000 | 250 to 5000 | > 10000 | 100 to 5000 | > 10000
8 | C=C(COc1ccccc1CNC(=O)NCc1ccc2c(c1)CN(C1CCC(=O)NC1=O)C2=O)C(=O)N1CCN(c2nc(OC[C@@H]3CCCN3C)nc3c2CCN(c2cccc4cccc(Cl)c24)C3)C[C@@H]1CC#N (some centres unmarked) [Compound I-63] | > 10000 | > 10000 | > 10000 | < 100 | > 10000
9 | C=C(COc1cc(Cl)cc(NC(=O)NCc2ccc3c(c2)CN(C2CCC(=O)NC2=O)C3=O)c1F)C(=O)N1CCN(c2nc(OC[C@@H]3CCCN3C)nc3c2CCN(c2cccc4cccc(Cl)c24)C3)C[C@@H]1CC#N (some centres unmarked) [Compound I-84] | < 250 | < 250 | 1500 to 10000 | > 10000 | < 500
10 | C=C(COc1cccc(NC(=O)NCc2ccc3c(c2)CN(C2CCC(=O)NC2=O)C3=O)c1)C(=O)N1CCN(c2nc(OC[C@@H]3CCCN3C)nc3c2CCN(c2cccc4cccc(Cl)c24)C3)C[C@@H]1CC#N (some centres unmarked) [Compound I-49] | 250 to 5000 | > 10000 | > 10000 | < 100 | > 10000
11 | C=C(COc1cc(NC(=O)NCc2ccc3c(c2)CN(C2CCC(=O)NC2=O)C3=O)cc(OC)c1)C(=O)N1CCN(c2nc(OC[C@@H]3CCCN3C)nc3c2CCN(c2cccc4cccc(Cl)c24)C3)C[C@@H]1CC#N (some centres unmarked) [Compound I-50] | 250 to 5000 | 250 to 5000 | > 10000 | < 100 | > 10000
12 | C=C(COc1ccc(Cl)cc1NC(=O)NCc1ccc2c(c1)CN(C1CCC(=O)NC1=O)C2=O)C(=O)N1CC2(CC(n3nc(-c4ccc5c(cnn5C)c4)c(-c4c(Cl)c(C)cc5[nH]ncc45)c3C)C2)C1 (centres unmarked) [Compound I-76] | < 250 | < 250 | 500 to 1500 | 100 to 5000 | < 500
13 | C=C(COc1c(Cl)cccc1NC(=O)NCc1ccc2c(c1)CN(C1CCC(=O)NC1=O)C2=O)C(=O)N1CCN(c2nc(OC[C@@H]3CCCN3C)nc3c2CCN(c2cccc4cccc(Cl)c24)C3)C[C@@H]1CC#N (some centres unmarked) [Compound I-86] | < 250 | < 250 | 500 to 1500 | < 100 | < 500
14 | C=C(COc1cc(Cl)cc(NC(=O)NCc2ccc3c(c2)CN(C2CCC(=O)NC2=O)C3=O)c1)C(=O)N1CCN(c2nc(OC[C@@H]3CCCN3C)nc3c2CCN(c2cccc4cccc(Cl)c24)C3)C[C@@H]1CC#N (some centres unmarked) [Compound I-35] | 250 to 5000 | < 250 | 1500 to 10000 | < 100 | 1500 to 10000
15 | C=C(COc1cc(Cl)cc(NC(=O)NCc2ccc3c(c2F)CN(C2CCC(=O)NC2=O)C3=O)c1)C(=O)N1CCN(c2nc(OC[C@@H]3CCCN3C)nc3c2CCN(c2cccc4cccc(Cl)c24)C3)C[C@@H]1CC#N (some centres unmarked) [Compound I-116] | 250 to 5000 | < 250 | > 10000 | < 100 | 1500 to 10000
16 | C=C(COC(=O)NCc1cc(Cl)cc(NC(=O)NCc2ccc3c(c2)CN(C2CCC(=O)NC2=O)C3=O)c1)C(=O)N1CCN(c2nc(OC[C@@H]3CCCN3C)nc3c2CCN(c2cccc4cccc(Cl)c24)C3)C[C@@H]1CC#N (some centres unmarked) [Compound I-73] | < 250 | < 250 | 1500 to 10000 | < 100 | < 500
17 | C=C(COc1cc(NC(=O)NCc2ccc3c(c2)CN(C2CCC(=O)NC2=O)C3=O)ccc1OC)C(=O)N1CCN(c2nc(OC[C@@H]3CCCN3C)nc3c2CCN(c2cccc4cccc(Cl)c24)C3)C[C@@H]1CC#N (some centres unmarked) [Compound I-89] | 250 to 5000 | > 10000 | > 10000 | < 100 | > 10000
18 | C=C(COc1ccc(Cl)cc1NC(=O)NCc1ccc2c(c1)CN(C1CCC(=O)NC1=O)C2=O)C(=O)N1CCN(c2nc(OC[C@@H]3CCCN3C)nc3c2CCN(c2cccc4cccc(Cl)c24)C3)C[C@@H]1CC#N (some centres unmarked) [Compound I-52] | 250 to 5000 | < 250 | 1500 to 10000 | < 100 | 500 to 1500
19 | C=C(COc1c(CNC(=O)Nc2ccc(C)c(Cl)c2)ccc2c1CN(C1CCC(=O)NC1=O)C2=O)C(=O)N1CCN(c2nc(OC[C@@H]3CCCN3C)nc3c2CCN(c2cccc4cccc(Cl)c24)C3)C[C@@H]1CC#N (some centres unmarked) [Compound I-90] | < 250 | < 250 | > 10000 | < 100 | < 500
